Assay results as given in PubChem BioAssay (NCI).
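Dose response: 5 concentrations. Exposure: 48 h. Format: 96-well plates. Endpoint: linear interpolation; highest concentration if not reached. Definition used: TGI = concentration required for complete inhibition of growth.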

Assays:
Test in all cases: DTP human tumour cell line panel, 48 h
786-0 renal = test system: 786-0 renal
A549 NSCLC = test system: A549 NSCLC
ACHN renal = test system: ACHN renal
CAKI-1 renal = test system: CAKI-1 renal
CCRF-CEM leukemia = test system: CCRF-CEM leukemia
COLO 205 colon = test system: COLO 205 colon
DLD-1 colon = test system: DLD-1 colon
DMS 114 small cell lung = test system: DMS 114 small cell lung
EKVX NSCLC = test system: EKVX NSCLC
HCC-2998 colon = test system: HCC-2998 colon
HOP-62 NSCLC = test system: HOP-62 NSCLC
HOP-92 NSCLC = test system: HOP-92 NSCLC
HT29 colon = test system: HT29 colon
IGROV1 ovarian = test system: IGROV1 ovarian
K-562 leukemia = test system: K-562 leukemia
KM20L2 colon = test system: KM20L2 colon
LOX IMVI melanoma = test system: LOX IMVI melanoma
M14 melanoma = test system: M14 melanoma
M19-MEL melanoma = test system: M19-MEL melanoma
MALME-3M melanoma = test system: MALME-3M melanoma
NCI-H226 lung = test system: NCI-H226 lung
NCI-H23 lung = test system: NCI-H23 lung
NCI-H522 lung = test system: NCI-H522 lung
OVCAR-3 ovarian = test system: OVCAR-3 ovarian
OVCAR-4 ovarian = test system: OVCAR-4 ovarian
OVCAR-5 ovarian = test system: OVCAR-5 ovarian
OVCAR-8 ovarian = test system: OVCAR-8 ovarian
RPMI-8226 leukemia = test system: RPMI-8226 leukemia
RXF 393 renal = test system: RXF 393 renal
RXF-631 renal = test system: RXF-631 renal
SF-268 CNS = test system: SF-268 CNS
SF-295 CNS = test system: SF-295 CNS
SF-539 CNS = test system: SF-539 CNS
SK-MEL-2 melanoma = test system: SK-MEL-2 melanoma
SK-MEL-28 melanoma = test system: SK-MEL-28 melanoma
SK-MEL-5 melanoma = test system: SK-MEL-5 melanoma
SK-OV-3 ovarian = test system: SK-OV-3 ovarian
SN12C renal = test system: SN12C renal
SNB-19 CNS = test system: SNB-19 CNS
SNB-75 CNS = test system: SNB-75 CNS
SW-620 colon = test system: SW-620 colon
TK-10 renal = test system: TK-10 renal
UACC-257 melanoma = test system: UACC-257 melanoma
UACC-62 melanoma = test system: UACC-62 melanoma
XF 498 CNS = test system: XF 498 CNS
A498 renal = test system: A498 renal
DMS 273 small cell lung = test system: DMS 273 small cell lung
HCT-116 colon = test system: HCT-116 colon
HCT-15 colon = test system: HCT-15 colon
HL-60(TB) leukemia = test system: HL-60(TB) leukemia
HOP-18 NSCLC = test system: HOP-18 NSCLC
KM12 colon = test system: KM12 colon
LXFL 529 NSCLC = test system: LXFL 529 NSCLC
MOLT-4 leukemia = test system: MOLT-4 leukemia
NCI-H460 lung = test system: NCI-H460 lung
SNB-78 CNS = test system: SNB-78 CNS
SR leukemia = test system: SR leukemia
U251 CNS = test system: U251 CNS
UO-31 renal = test system: UO-31 renal
BT-549 breast = test system: BT-549 breast
DU-145 prostate = test system: DU-145 prostate
HS 578T breast = test system: HS 578T breast
MCF7 breast = test system: MCF7 breast
MDA-MB-231 breast = test system: MDA-MB-231 breast
MDA-MB-435 = test system: MDA-MB-435
MDA-N = test system: MDA-N
PC-3 prostate = test system: PC-3 prostate
T-47D breast = test system: T-47D breast

## CC1(C)C(=NNC(=S)NN)C(C)(C)C1=NNC(=S)NN
786-0 renal
  TGI: > 100 µM
A549 NSCLC
  TGI: > 100 µM
ACHN renal
  TGI: > 100 µM
CAKI-1 renal
  TGI: > 100 µM
CCRF-CEM leukemia
  TGI: > 100 µM
COLO 205 colon
  TGI: > 100 µM
DLD-1 colon
  TGI: > 100 µM
DMS 114 small cell lung
  TGI: > 100 µM
EKVX NSCLC
  TGI: > 100 µM
HCC-2998 colon
  TGI: > 100 µM
HOP-62 NSCLC
  TGI: > 100 µM
HOP-92 NSCLC
  TGI: > 100 µM
HT29 colon
  TGI: > 100 µM
IGROV1 ovarian
  TGI: > 100 µM
K-562 leukemia
  TGI: > 100 µM
KM20L2 colon
  TGI: > 100 µM
LOX IMVI melanoma
  TGI: > 100 µM
M14 melanoma
  TGI: > 100 µM
M19-MEL melanoma
  TGI: > 100 µM
MALME-3M melanoma
  TGI: > 100 µM
NCI-H226 lung
  TGI: > 100 µM
NCI-H23 lung
  TGI: > 100 µM
NCI-H522 lung
  TGI: > 100 µM
OVCAR-3 ovarian
  TGI: > 100 µM
OVCAR-4 ovarian
  TGI: > 100 µM
OVCAR-5 ovarian
  TGI: > 100 µM
OVCAR-8 ovarian
  TGI: > 100 µM
RPMI-8226 leukemia
  TGI: > 100 µM
RXF 393 renal
  TGI: > 100 µM
RXF-631 renal
  TGI: > 100 µM
SF-268 CNS
  TGI: > 100 µM
SF-295 CNS
  TGI: > 100 µM
SF-539 CNS
  TGI: > 100 µM
SK-MEL-2 melanoma
  TGI: > 100 µM
SK-MEL-28 melanoma
  TGI: > 100 µM
SK-MEL-5 melanoma
  TGI: > 100 µM
SK-OV-3 ovarian
  TGI: > 100 µM
SN12C renal
  TGI: > 100 µM
SNB-19 CNS
  TGI: > 100 µM
SNB-75 CNS
  TGI: > 100 µM
SW-620 colon
  TGI: > 100 µM
TK-10 renal
  TGI: > 100 µM
UACC-257 melanoma
  TGI: > 100 µM
UACC-62 melanoma
  TGI: > 100 µM
XF 498 CNS
  TGI: > 100 µM

## COc1cc2c(c(OC)c1OC)CCNC2C1=C(O)COC1=O (stereo unspecified)
786-0 renal
  TGI: > 100 µM
A498 renal
  TGI: > 100 µM
A549 NSCLC
  TGI: > 100 µM
ACHN renal
  TGI: > 100 µM
CAKI-1 renal
  TGI: > 100 µM
CCRF-CEM leukemia
  TGI: > 100 µM
COLO 205 colon
  TGI: > 100 µM
DLD-1 colon
  TGI: > 100 µM
DMS 114 small cell lung
  TGI: > 100 µM
DMS 273 small cell lung
  TGI: > 100 µM
HCC-2998 colon
  TGI: > 100 µM
HCT-116 colon
  TGI: > 100 µM
HCT-15 colon
  TGI: > 100 µM
HL-60(TB) leukemia
  TGI: > 100 µM
HOP-18 NSCLC
  TGI: > 100 µM
HOP-62 NSCLC
  TGI: > 100 µM
HOP-92 NSCLC
  TGI: > 100 µM
HT29 colon
  TGI: > 100 µM
IGROV1 ovarian
  TGI: > 100 µM
K-562 leukemia
  TGI: > 100 µM
KM12 colon
  TGI: > 100 µM
KM20L2 colon
  TGI: > 100 µM
LOX IMVI melanoma
  TGI: > 100 µM
LXFL 529 NSCLC
  TGI: > 100 µM
M14 melanoma
  TGI: > 100 µM
M19-MEL melanoma
  TGI: > 100 µM
MALME-3M melanoma
  TGI: > 100 µM
MOLT-4 leukemia
  TGI: > 100 µM
NCI-H226 lung
  TGI: 99.5 µM
NCI-H460 lung
  TGI: > 100 µM
NCI-H522 lung
  TGI: > 100 µM
OVCAR-4 ovarian
  TGI: > 100 µM
OVCAR-5 ovarian
  TGI: > 100 µM
OVCAR-8 ovarian
  TGI: > 100 µM
RPMI-8226 leukemia
  TGI: > 100 µM
RXF 393 renal
  TGI: > 100 µM
RXF-631 renal
  TGI: > 100 µM
SF-268 CNS
  TGI: > 100 µM
SF-295 CNS
  TGI: > 100 µM
SF-539 CNS
  TGI: > 100 µM
SK-MEL-2 melanoma
  TGI: > 100 µM
SK-MEL-5 melanoma
  TGI: > 100 µM
SK-OV-3 ovarian
  TGI: > 100 µM
SN12C renal
  TGI: > 100 µM
SNB-19 CNS
  TGI: > 100 µM
SNB-75 CNS
  TGI: > 100 µM
SNB-78 CNS
  TGI: > 100 µM
SR leukemia
  TGI: > 100 µM
SW-620 colon
  TGI: > 100 µM
TK-10 renal
  TGI: > 100 µM
U251 CNS
  TGI: > 100 µM
UACC-257 melanoma
  TGI: > 100 µM
UACC-62 melanoma
  TGI: > 100 µM
UO-31 renal
  TGI: > 100 µM

## CN(C)CCNC(=O)c1cccc2nc3c(ccc4ccccc43)nc12
786-0 renal
  TGI: 17.6 µM
A498 renal
  TGI: 15.5 µM
A549 NSCLC
  TGI: 12.2 µM
ACHN renal
  TGI: 4.34 µM
BT-549 breast
  TGI: 22.8 µM
CAKI-1 renal
  TGI: 12.9 µM
CCRF-CEM leukemia
  TGI: 4.68 µM
COLO 205 colon
  TGI: 11.3 µM
DLD-1 colon
  TGI: 8.25 µM
DMS 114 small cell lung
  TGI: 8.12 µM
DMS 273 small cell lung
  TGI: > 100 µM
DU-145 prostate
  TGI: 16.4 µM
EKVX NSCLC
  TGI: 17.8 µM
HCC-2998 colon
  TGI: 7.18 µM
HCT-116 colon
  TGI: 5.68 µM
HCT-15 colon
  TGI: 4.6 µM
HL-60(TB) leukemia
  TGI: 3.98 µM
HOP-18 NSCLC
  TGI: 29.9 µM
HOP-62 NSCLC
  TGI: 7.88 µM
HOP-92 NSCLC
  TGI: 17.3 µM
HS 578T breast
  TGI: 22.8 µM
HT29 colon
  TGI: 4.08 µM
IGROV1 ovarian
  TGI: 22.2 µM
K-562 leukemia
  TGI: 4.86 µM
KM12 colon
  TGI: 6.9 µM
KM20L2 colon
  TGI: 3.15 µM
LOX IMVI melanoma
  TGI: 2.44 µM
LXFL 529 NSCLC
  TGI: 14 µM
M14 melanoma
  TGI: 11 µM
M19-MEL melanoma
  TGI: 3.02 µM
MALME-3M melanoma
  TGI: 3.05 µM
MCF7 breast
  TGI: 3.27 µM
MDA-MB-231 breast
  TGI: 4.12 µM
MDA-MB-435
  TGI: 13.7 µM
MDA-N
  TGI: 3.21 µM
MOLT-4 leukemia
  TGI: 1.6 µM
NCI-H226 lung
  TGI: 10.9 µM
NCI-H23 lung
  TGI: 15.9 µM
NCI-H460 lung
  TGI: 1.91 µM
NCI-H522 lung
  TGI: 18.7 µM
OVCAR-3 ovarian
  TGI: 19.7 µM
OVCAR-4 ovarian
  TGI: 5.27 µM
OVCAR-5 ovarian
  TGI: 15 µM
OVCAR-8 ovarian
  TGI: 7.84 µM
PC-3 prostate
  TGI: 10.1 µM
RPMI-8226 leukemia
  TGI: 6.66 µM
RXF 393 renal
  TGI: 9.54 µM
RXF-631 renal
  TGI: 2.43 µM
SF-268 CNS
  TGI: 2.19 µM
SF-295 CNS
  TGI: 14.3 µM
SF-539 CNS
  TGI: 3.59 µM
SK-MEL-2 melanoma
  TGI: 3.86 µM
SK-MEL-28 melanoma
  TGI: 4.37 µM
SK-MEL-5 melanoma
  TGI: 4.03 µM
SK-OV-3 ovarian
  TGI: 24.2 µM
SN12C renal
  TGI: 14.6 µM
SNB-19 CNS
  TGI: 18.1 µM
SNB-75 CNS
  TGI: 16.5 µM
SNB-78 CNS
  TGI: 19.4 µM
SR leukemia
  TGI: 4.25 µM
SW-620 colon
  TGI: 3.61 µM
T-47D breast
  TGI: 20.6 µM
TK-10 renal
  TGI: 20.6 µM
U251 CNS
  TGI: 4.49 µM
UACC-257 melanoma
  TGI: 3.4 µM
UACC-62 melanoma
  TGI: 5.2 µM
UO-31 renal
  TGI: 14.9 µM
